In article PMC10696740 (BMC Biology, 2023):
Several values for one entry are separate records, joined by “and”; a condition that tells them apart may be missing. Identical values can stand only once. Entries after “also recorded” stand apart in the source; their conditions may differ. Like-named read-outs stand apart in the source and are kept apart here.

How the values were obtained:
[1] = target: FtfL from Vibrio cholerae (Vibrio cholerae, UniProt Q9KLX7); assay: Inhibition of FtfL enzymatic activity; type: biochemical
[2] = target: FtfL from Fusobacterium nucleatum (Fusobacterium nucleatum, UniProt Q8RHF4); assay: Inhibition of FtfL enzymatic activity; type: biochemical
[3] = test system: Peptostreptococcus anaerobius ATCC 27337; assay: Growth inhibition of CRC pathogenic bacteria by BBR; conditions: P. anaerobius ATCC 27337; 0.3 mM and 0.6 mM BBR
[4] = test system: FtfL from Clostridium sporogenes; assay: Inhibition of FtfL enzymatic activity; type: biochemical; conditions: ns = no significance, not inhibited by BBR
Description: (§1) The activities of the FtfL enzymes were measured according to the protocol described previously.
(§2) Then, the reaction was initiated by adding substrates (0.1 mM tetrahydrofolate, 2 mM MgCl2, 0.05 mM ATP, and 8 mM sodium formate).
(§3) The product was detected with a maximum absorbance at 350 nm (ε = 24.9 mM^−1 cm^−1) using FLUOstar OPTIMA (BMG LABTECH, Offenburgh, Germany). The reaction was performed at 30 °C. The control reaction was performed by replacing BBR with DMSO. […] Data analysis was performed in GraphPad Prism 7.0.

[5] = target: FtfL from Clostridium ljungdahlii (Clostridium ljungdahlii, UniProt D8GTX8); assay: Inhibition of FtfL enzymatic activity; type: biochemical
Description: as §1, §2, §3

[6] = target: T1, PaFtfL (Peptostreptococcus anaerobius, UniProt A0A379CIH2); assay: Inhibition of FtfL enzymatic activity; type: biochemical; conditions: Inhibited by BBR (IC50), FtfL from Peptostreptococcus anaerobius, 20 nM enzyme
T1 sequence (A0A379CIH2 1-558): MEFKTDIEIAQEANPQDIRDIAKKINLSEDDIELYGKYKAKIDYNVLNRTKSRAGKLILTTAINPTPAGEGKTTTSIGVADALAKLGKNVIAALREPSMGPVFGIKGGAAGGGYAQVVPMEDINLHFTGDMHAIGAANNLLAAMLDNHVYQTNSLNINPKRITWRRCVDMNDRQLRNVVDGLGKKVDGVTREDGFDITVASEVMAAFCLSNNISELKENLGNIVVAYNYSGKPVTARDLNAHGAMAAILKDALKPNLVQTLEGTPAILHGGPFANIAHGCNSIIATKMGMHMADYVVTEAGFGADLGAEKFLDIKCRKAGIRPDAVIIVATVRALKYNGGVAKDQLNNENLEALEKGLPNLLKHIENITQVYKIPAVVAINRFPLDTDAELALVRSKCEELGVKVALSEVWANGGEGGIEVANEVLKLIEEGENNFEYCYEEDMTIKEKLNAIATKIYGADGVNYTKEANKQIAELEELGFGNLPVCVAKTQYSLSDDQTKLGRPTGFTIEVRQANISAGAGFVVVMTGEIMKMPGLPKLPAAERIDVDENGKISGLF
Description: as §1, §2, §3

[7] = target: FtfL from Parabacteroides distasonis (Parabacteroides distasonis, UniProt A6LAR6); assay: Inhibition of FtfL enzymatic activity; type: biochemical
Description: as §1, §2, §3

[8] = target: FtfL from Clostridium symbiosum (Clostridium symbiosum, UniProt E7GR72); assay: Inhibition of FtfL enzymatic activity; type: biochemical
Description: as §1, §2, §3

[9] = target: FtfL from Lactobacillus plantarum (Lactiplantibacillus plantarum, UniProt Q88W76); assay: Inhibition of FtfL enzymatic activity; type: biochemical; conditions: 100 nM enzyme
Description: as §1, §2, §3

[10] = target: FtfL from Bacteroides fragilis (Bacteroides fragilis, UniProt Q64U80); assay: Inhibition of FtfL enzymatic activity; type: biochemical
Description: as §1, §2, §3

[11] = target: FtfL from Lactococcus lactis (Lactococcus lactis subsp. lactis, UniProt Q9CH07); assay: Inhibition of FtfL enzymatic activity; type: biochemical
Description: as §1, §2, §3

[12] = test system: Lactobacillus reuteri DSM 17938; assay: Effect of BBR on the growth of probiotics; conditions: L. reuteri DSM 17938
[13] = test system: Lactobacillus plantarum DSM 13171; assay: Effect of BBR on the growth of probiotics; conditions: L. plantarum DSM 13171
[14] = target: T2, hsMTHFD1 (Homo sapiens, UniProt P11586); assay: Inhibition of hsMTHFD1 ligase activity; type: biochemical; conditions: hsMTHFD1, 0.4 mM BBR
T2 construct: His6 tag with thrombin site of pET28a (inferred) (N); made in house; host or cells: E. coli BL21 (DE3)
Description: (§4) Then, the reaction was initiated by adding substrates (2 mM tetrahydrofolate, 10 mM MgCl2, 40 mM sodium formate, and 5 mM ATP).
as §3

[15] = target: T3, hsMTHFD1L (Homo sapiens, UniProt Q6UB35); conditions: BLI, 1:1 binding model
Description: (§5) A streptavidin matrix-coated sensor chip (SA chip) was firstly equilibrated with buffer A (lysis buffer with 0.05% Tween 20) followed with the immobilization BBP (200 μM) on the SA chip. Next, proteins with increasing concentrations (0.23, 0.91, 3.63, 14.50, and 58.00 μM) were passed on to the chip for the measurement of changes in response unit (nm). The program comprises the stabilization of the baseline with the buffer A for 1 min, 6 min incubation of the BBP with the SA chip for immobilization, stabilizing the baseline again for 3 min, association enabling interaction between proteins and compounds for 4 min, and dissociation for 4 min followed by a regeneration step. […] Raw data were pre-processed, analyzed, and fitted using the 1:1 binding model in the manufacturer’s software (9.0, Pall ForteBio Corp, Menlo Park, CA, USA) to generate kinetic parameters.

[16] = target: T2, hsMTHFD1; conditions: BLI, 1:1 binding model
Description: as §5

[17] = test system: Lactobacillus acidophilus ATCC 4356; assay: Effect of BBR on the growth of probiotics; conditions: L. acidophilus ATCC 4356
[18] = test system: Lactobacillus fermentum CGMCC 1.1880; assay: Effect of BBR on the growth of probiotics; conditions: L. fermentum CGMCC 1.1880
[19] = target: PaFtfL Y229A/F383A/W411A; type: binding, P. anaerobius; conditions: BLI, tri-mutant
Description: as §5

[20] = target: PaFtfL Y229A; type: binding, P. anaerobius; conditions: BLI, allosteric site mutant
Description: as §5

[21] = target: PaFtfL F383A (Peptostreptococcus anaerobius, UniProt A0A379CIH2, F383A); type: binding, P. anaerobius; conditions: BLI
Description: as §5

[22] = target: T3, hsMTHFD1L; assay: Inhibition of hsMTHFD1L ligase activity; type: biochemical; conditions: 0.4 mM BBR
Description: as §4, §3

[23] = test system: Lactococcus lactis DSM 20481; assay: Growth inhibition of CRC pathogenic bacteria by BBR; conditions: L. lactis DSM 20481; 0.3 mM and 0.6 mM BBR
[24] = test system: Fusobacterium nucleatum ATCC 10953; assay: as above; conditions: F. nucleatum ATCC 10953; 0.3 mM and 0.6 mM BBR
[25] = target: T1, PaFtfL; design: species or system P. anaerobius; conditions: BLI, wildtype PaFtfL, immobilized BBP, 1:1 binding model
Description: as §5

[26] = target: FtfL from Clostridioides difficile (Clostridioides difficile, UniProt Q189R2); assay: Inhibition of FtfL enzymatic activity; type: biochemical
[27] = test system: Lactobacillus bulgaricus BD 15; assay: Effect of BBR on the growth of probiotics; conditions: L. bulgaricus BD 15
[28] = target: T1, PaFtfL; conditions: 40 μM BBR
[29] = test system: Clostridium symbiosum ATCC 14940; assay: Growth inhibition of CRC pathogenic bacteria by BBR; conditions: C. symbiosum ATCC 14940; 0.3 mM and 0.6 mM BBR
[30] = test system: Streptococcus faecalis ATCC 19433; assay: as above; conditions: S. faecalis ATCC 19433; 0.3 mM and 0.6 mM BBR
[31] = target: FtfL from Clostridium perfringens (Clostridium perfringens, UniProt Q0TMI3); assay: biochemical
[32] = target: PaFtfL (P. anaerobius formate tetrahydrofolate ligase) (Peptostreptococcus anaerobius ATCC 27337); assay: crystal structure; sitting drop vapour diffusion at 22 °C, 10 mg/ml protein; three crystal forms: apo, apo crystals soaked with 1 mM ATP, and protein mixed with 1 mM BBR; protomers A/B and C/D form two dimers that assemble into a tetramer

T3 sequence (Q6UB35 349-978 limits assumed): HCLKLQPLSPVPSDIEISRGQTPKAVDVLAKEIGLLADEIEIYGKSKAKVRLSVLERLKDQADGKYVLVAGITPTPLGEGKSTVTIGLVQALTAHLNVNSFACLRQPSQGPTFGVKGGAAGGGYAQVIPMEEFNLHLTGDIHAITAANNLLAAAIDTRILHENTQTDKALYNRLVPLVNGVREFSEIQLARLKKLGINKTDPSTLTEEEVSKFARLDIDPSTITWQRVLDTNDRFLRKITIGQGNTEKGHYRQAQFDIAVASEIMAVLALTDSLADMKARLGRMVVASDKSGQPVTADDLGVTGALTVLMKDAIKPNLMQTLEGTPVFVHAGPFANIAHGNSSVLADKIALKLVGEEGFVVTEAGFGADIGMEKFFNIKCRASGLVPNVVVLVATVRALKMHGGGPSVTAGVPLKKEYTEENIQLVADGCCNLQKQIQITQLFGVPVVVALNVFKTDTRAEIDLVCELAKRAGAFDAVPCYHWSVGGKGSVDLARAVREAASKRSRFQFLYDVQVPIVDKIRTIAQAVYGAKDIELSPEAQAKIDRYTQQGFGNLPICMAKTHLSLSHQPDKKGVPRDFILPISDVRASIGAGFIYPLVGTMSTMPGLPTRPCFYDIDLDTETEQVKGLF
T2 sequence (P11586 whole entry): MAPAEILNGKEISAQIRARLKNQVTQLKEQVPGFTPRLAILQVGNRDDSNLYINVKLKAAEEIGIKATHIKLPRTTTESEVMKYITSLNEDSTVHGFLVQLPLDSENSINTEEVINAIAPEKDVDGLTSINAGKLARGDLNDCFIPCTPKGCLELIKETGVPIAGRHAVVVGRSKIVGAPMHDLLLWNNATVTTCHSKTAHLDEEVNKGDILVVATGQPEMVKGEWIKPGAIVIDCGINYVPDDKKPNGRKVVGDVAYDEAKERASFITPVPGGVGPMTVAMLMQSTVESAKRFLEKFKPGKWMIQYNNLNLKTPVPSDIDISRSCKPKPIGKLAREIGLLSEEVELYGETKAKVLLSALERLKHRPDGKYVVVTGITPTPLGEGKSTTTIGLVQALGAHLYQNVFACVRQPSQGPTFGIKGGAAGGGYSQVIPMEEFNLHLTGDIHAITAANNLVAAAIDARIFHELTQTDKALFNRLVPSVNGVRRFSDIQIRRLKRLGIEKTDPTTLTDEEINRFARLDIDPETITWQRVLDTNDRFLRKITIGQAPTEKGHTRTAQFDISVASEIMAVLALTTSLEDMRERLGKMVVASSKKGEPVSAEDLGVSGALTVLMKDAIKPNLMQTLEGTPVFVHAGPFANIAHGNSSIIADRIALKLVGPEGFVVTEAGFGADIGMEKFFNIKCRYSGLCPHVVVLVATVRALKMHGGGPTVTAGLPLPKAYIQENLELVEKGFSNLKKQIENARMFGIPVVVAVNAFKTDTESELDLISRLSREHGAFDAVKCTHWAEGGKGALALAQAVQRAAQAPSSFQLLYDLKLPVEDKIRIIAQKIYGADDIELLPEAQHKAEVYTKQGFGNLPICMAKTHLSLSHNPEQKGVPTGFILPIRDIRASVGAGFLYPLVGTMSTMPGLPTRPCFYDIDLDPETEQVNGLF
Sequence of FtfL from Lactococcus lactis (Q9CH07 whole entry): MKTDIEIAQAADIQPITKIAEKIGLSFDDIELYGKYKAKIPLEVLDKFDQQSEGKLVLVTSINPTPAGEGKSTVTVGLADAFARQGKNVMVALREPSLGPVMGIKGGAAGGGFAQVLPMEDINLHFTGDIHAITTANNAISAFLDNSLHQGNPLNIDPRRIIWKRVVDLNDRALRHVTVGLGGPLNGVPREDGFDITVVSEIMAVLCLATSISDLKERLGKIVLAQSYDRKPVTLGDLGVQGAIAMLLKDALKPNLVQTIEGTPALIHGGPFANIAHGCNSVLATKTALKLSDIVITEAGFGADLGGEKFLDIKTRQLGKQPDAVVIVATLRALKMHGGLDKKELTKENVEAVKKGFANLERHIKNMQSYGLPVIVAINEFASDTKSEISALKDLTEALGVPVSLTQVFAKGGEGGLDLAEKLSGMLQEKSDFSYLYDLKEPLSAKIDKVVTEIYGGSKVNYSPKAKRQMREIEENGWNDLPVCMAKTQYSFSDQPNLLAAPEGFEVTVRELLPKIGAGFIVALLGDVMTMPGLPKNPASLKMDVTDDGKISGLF
Sequence of FtfL from Lactobacillus plantarum (Q88W76 whole entry): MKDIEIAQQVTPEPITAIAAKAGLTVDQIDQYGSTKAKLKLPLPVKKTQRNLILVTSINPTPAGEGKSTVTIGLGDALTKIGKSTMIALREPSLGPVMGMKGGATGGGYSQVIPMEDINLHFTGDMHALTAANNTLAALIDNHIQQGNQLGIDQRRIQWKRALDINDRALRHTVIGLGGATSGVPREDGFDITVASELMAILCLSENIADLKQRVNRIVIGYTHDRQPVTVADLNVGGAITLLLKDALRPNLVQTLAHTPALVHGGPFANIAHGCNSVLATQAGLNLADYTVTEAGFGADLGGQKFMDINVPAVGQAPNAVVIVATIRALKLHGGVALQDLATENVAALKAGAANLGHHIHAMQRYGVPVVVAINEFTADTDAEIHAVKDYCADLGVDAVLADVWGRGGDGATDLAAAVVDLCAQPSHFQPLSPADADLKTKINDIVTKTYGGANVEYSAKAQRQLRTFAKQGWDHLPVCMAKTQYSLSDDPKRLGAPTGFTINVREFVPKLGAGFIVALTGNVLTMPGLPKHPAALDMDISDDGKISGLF
Sequence of FtfL from Clostridium ljungdahlii (D8GTX8 entry or part of it): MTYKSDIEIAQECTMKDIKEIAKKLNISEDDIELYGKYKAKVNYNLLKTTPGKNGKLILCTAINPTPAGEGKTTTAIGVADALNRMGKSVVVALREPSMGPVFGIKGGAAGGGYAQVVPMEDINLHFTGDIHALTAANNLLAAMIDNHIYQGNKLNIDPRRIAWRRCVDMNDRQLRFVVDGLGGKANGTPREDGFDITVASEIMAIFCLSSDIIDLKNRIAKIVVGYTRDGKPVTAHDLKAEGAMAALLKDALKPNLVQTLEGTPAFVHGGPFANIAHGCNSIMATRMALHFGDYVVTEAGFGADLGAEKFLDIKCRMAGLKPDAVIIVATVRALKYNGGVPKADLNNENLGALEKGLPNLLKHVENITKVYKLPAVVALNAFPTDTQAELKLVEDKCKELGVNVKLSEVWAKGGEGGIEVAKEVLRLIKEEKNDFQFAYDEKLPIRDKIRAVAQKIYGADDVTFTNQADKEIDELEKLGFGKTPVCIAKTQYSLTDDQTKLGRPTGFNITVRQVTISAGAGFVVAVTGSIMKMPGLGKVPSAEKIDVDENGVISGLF

COc1ccc2cc3[n+](cc2c1OC)CCc1cc2c(cc1-3)OCO2 [BBR, Berberine]
IC50 [1]: 130 ± 12.3 µM
IC50 [2]: 106 ± 27 µM
effect on bacterial growth [3]: dose-dependent inhibition; also recorded: inhibits the growth
Inhibited by BBR (IC50) [4]: ns
IC50 [5]: 83.8 ± 10 µM
IC50 [6]: 62 µM and 62.3 µM
IC50 [7]: > 200 µM
IC50 [8]: 129 ± 17.1 µM
IC50 [9]: > 200 µM
IC50 [10]: 105 ± 69.8 µM
IC50 [11]: 118 ± 18.5 µM
effect on bacterial growth [12]: little effect
effect on bacterial growth [13]: little effect
decrease of ligase enzyme activity [14]: 58%
Kd [15]: 0.158 µM
Kd [16]: 2.3 µM
effect on bacterial growth [17]: promotes growth
effect on bacterial growth [18]: little effect
binding affinity of BBR with PaFtfL Y229A/F383A/W411A [19]: non-detectable
binding affinity of BBR with PaFtfL Y229A [20]: The affinity is too weak to fit
reduction of binding affinity versus wildtype PaFtfL ([21]; F383A): 34 fold
Kd ([21]; active site mutant): 23.1 µM
decrease of ligase enzyme activity [22]: 36%
effect on bacterial growth [23]: dose-dependent inhibition; also recorded: inhibits the growth
effect on bacterial growth [24]: dose-dependent inhibition; also recorded: inhibits the growth
Kd [25]: 0.674 µM
IC50 [26]: 158 ± 68.7 µM
effect on bacterial growth [27]: inhibits growth
apparent Kcat of PaFtfL ([28]; substrate ATP): 16.7 ± 0.83 s⁻¹
apparent Vmax of PaFtfL ([28]; substrate ATP): 0.010 ± 0.0005 mM/min
apparent Kcat of PaFtfL ([28]; substrate THF): 78.3 ± 6.7 s⁻¹
apparent Vmax of PaFtfL ([28]; substrate THF): 0.047 ± 0.004 mM/min
effect on bacterial growth [29]: dose-dependent inhibition; also recorded: inhibits the growth
effect on bacterial growth [30]: dose-dependent inhibition; also recorded: inhibits the growth
IC50 [31]: 105 ± 3.15 µM

PaFtfL (P. anaerobius formate tetrahydrofolate ligase) (enzyme)
stoichiometry N [32]: 4
